Data taken from patent US20210330611A1, “THERAPY FOR NEUROLOGICAL DISEASES/DISORDERS” (priority 2020, published 2021).
Counter-ions that a name gives are not always drawn. Like-named read-outs stand apart in the source and are kept apart here.

Tests used:
[1] = test system: LPS-induced microglia activation; experiment: Image-based assay of LPS-induced microglia activation (HTS and dose response); type: cell-based, rat; settings: for inhibition at 10 µM: Rattus norvegicus, Microglia, read-out: LPS % inhibition
[2] = test system: fibrin- and LPS-induced microglia activation; experiment: cells; type: cell-based, rat
primary rat microglia [3] = test system: primary rat microglia
[4] = test system: fibrin-induced microglia activation; experiment: Image-based assay of fibrin-induced microglia activation (HTS and dose response); type: cell-based, rat; settings: primary microglia HTS, fibrin stimulation; for inhibition at 10 µM: Rattus norvegicus, Microglia, read-out: Fibrin % inhibition
primary rat microglia [5] = experiment: Cell toxicity (dead cells, size <150 μm2) in coated fibrin (cFib) assay; settings: primary microglia HTS;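 note: share of dead cells sized under 150 µm2 at 10 µM in fibrin-stimulated microglia HTS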
[6] = primary microglia HTS, LPS stimulation, compounds at 10 μM
[7] = classification by fibrin and LPS inhibition, HTS at 10 μM
[8] = fibrin assay, dead cells (size <150 μm2), compounds at 10 μM
[9] = classification by fibrin and LPS inhibition in HTS
[10] = cell size >800 μm2 as marker of activation
[11] = fibrin stimulation, cell size <150 μm2 as marker of toxicity

For `CC(O)(P(=O)(O)O)P(=O)(O)O` [Etidronic acid], the inhibition at 10 µM [1, 6] was 18%, the “Quadrant (FIG. 5b)” value [2, 7] was “Q4” and the “LPS % cell toxicity” value (primary rat microglia [3]; rat) was 0%. For the same compound, the inhibition at 10 µM ([4]; compounds at 10 μM) was -16% and the “Fibrin % cell toxicity” value (primary rat microglia [5]; [8]) was 1%.

With `NC(=O)CN1CCCC1=O` [Piracetam] the inhibition at 10 µM ([1]; 48 h) was 9%, the “Quadrant (FIG. 5b)” value [2, 9] was “Q4” and the “LPS % cell toxicity” value (primary rat microglia [3]; rat) was 0%. For the same compound, the inhibition at 10 µM [4, 10] was -21% and the “Fibrin % cell toxicity” value (primary rat microglia [5]; [11]) was 0%.

`Nc1nc(N)c2nc(CNc3ccc(C(=O)N[C@@H](CCC(=O)O)C(=O)O)cc3)cnc2n1` [Aminopterin] was tested, and the inhibition at 10 µM [1, 6] was 17%, the “Quadrant (FIG. 5b)” value ([2]; quadrant by fibrin and LPS inhibition, HTS at 10 μM) was “Q4” and the “LPS % cell toxicity” value (primary rat microglia [3]; rat) was 0%. The inhibition at 10 µM ([4]; compounds at 10 μM) was -12% and the “Fibrin % cell toxicity” value (primary rat microglia [5]; fibrin assay, dead cells (size <150 μm2)) was 1%.

With `O=C(/C=C/C=C/c1ccc2c(c1)OCO2)N1CCCCC1` [Piperine] the inhibition at 10 µM ([1]; 48 h) was 10%, the “Quadrant (FIG. 5b)” value [2, 9] was “Q4” and the “LPS % cell toxicity” value (primary rat microglia [3]; rat) was 0%. For the same compound, the inhibition at 10 µM [4, 10] was -13% and the “Fibrin % cell toxicity” value (primary rat microglia [5]; [11]) was 1%.

In the case of `CCCCCCCCCCCCCCOS(=O)(=O)[O-].[Na+]` [Sodium Tetradecyl Sulfate], the inhibition at 10 µM ([1]; 48 h) is reported as 13%, the “Quadrant (FIG. 5b)” value [2, 9] is reported as “Q4” and the “LPS % cell toxicity” value (primary rat microglia [3]; rat) is reported as 0%. The inhibition at 10 µM [4, 10] was -5% and the “Fibrin % cell toxicity” value (primary rat microglia [5]; [11]) was 1%.

In the case of `CCCNC(C)C(=O)Nc1ccccc1C` (stereo not shown) [Prilocaine], the inhibition at 10 µM ([1]; 48 h) is reported as 12%, the “Quadrant (FIG. 5b)” value [2, 9] is reported as “Q4” and the “LPS % cell toxicity” value (primary rat microglia [3]; rat) is reported as 0%. For the same compound, the inhibition at 10 µM [4, 10] was -3% and the “Fibrin % cell toxicity” value (primary rat microglia [5]; [11]) was 0%.

For `Cn1c(=O)c2c(ncn2CC(O)CO)n(C)c1=O` (stereo not shown) [Dyphylline], the inhibition at 10 µM [1, 6] was -6%, the “Quadrant (FIG. 5b)” value [2, 7] was “Q4” and the “LPS % cell toxicity” value (primary rat microglia [3]; rat) was 0%. For the same compound, the inhibition at 10 µM ([4]; compounds at 10 μM) was -7% and the “Fibrin % cell toxicity” value (primary rat microglia [5]; [8]) was 0%.

`CCCCCCOc1ccccc1C(N)=O` [Exalamide] was tested, and the inhibition at 10 µM [1, 6] was 18%, the “Quadrant (FIG. 5b)” value [2, 7] was “Q4” and the “LPS % cell toxicity” value (primary rat microglia [3]; rat) was 0%. The inhibition at 10 µM ([4]; compounds at 10 μM) was -15% and the “Fibrin % cell toxicity” value (primary rat microglia [5]; [8]) was 1%.

For `O=C(O)CCC(=O)c1ccc(-c2ccccc2)cc1` [Fenbufen], the inhibition at 10 µM [1, 6] was 25%, the “Quadrant (FIG. 5b)” value [2, 7] was “Q4” and the “LPS % cell toxicity” value (primary rat microglia [3]; rat) was 0%. For the same compound, the inhibition at 10 µM ([4]; compounds at 10 μM) was 3% and the “Fibrin % cell toxicity” value (primary rat microglia [5]; [8]) was 0%.

In the case of `OC(CCCN1CCCCC1)(c1ccccc1)c1ccccc1` [Diphenidol], the inhibition at 10 µM [1, 6] is reported as -5%, the “Quadrant (FIG. 5b)” value [2, 7] is reported as “Q4” and the “LPS % cell toxicity” value (primary rat microglia [3]; rat) is reported as 0%. For the same compound, the inhibition at 10 µM ([4]; compounds at 10 μM) was -34% and the “Fibrin % cell toxicity” value (primary rat microglia [5]; [8]) was 1%.

`O=C(O)CN(CCN(CC(=O)O)CC(=O)O)CCN(CC(=O)O)CC(=O)O` was tested, and the LPS % inhibition [1] was −2%, the “Quadrant (FIG. 5b)” value [2, 9] was “Q4” and the “LPS % cell toxicity” value (primary rat microglia [3]) was 0%. For the same compound, the Fibrin % inhibition [4, 10] was 11% and the “Fibrin % cell toxicity” value (primary rat microglia [5]; [11]) was 0%.

In the case of `C=CC1=C(C)c2cc3[nH]c(cc4nc(cc5[nH]c(cc1n2)c(C)c5CCC(=O)O)C(CCC(=O)O)=C4C)c(C)c3C=C` [Protoporphyrin Ix], the inhibition at 10 µM ([1]; 48 h) is reported as 2%, the “Quadrant (FIG. 5b)” value [2, 9] is reported as “Q4” and the “LPS % cell toxicity” value (primary rat microglia [3]; rat) is reported as 0%. For the same compound, the inhibition at 10 µM [4, 10] was -70% and the “Fibrin % cell toxicity” value (primary rat microglia [5]; [11]) was 1%.

`CC(CCc1ccc(O)cc1)NCCc1ccc(O)c(O)c1` (stereo not shown) [Dobutamine Hydrochloride] was tested, and the LPS % inhibition ([1]; primary microglia HTS, LPS stimulation, compounds at 10 μM, 10 µM) was 27%, the “Quadrant (FIG. 5b)” value [2, 7] was “Q4” and the “LPS % cell toxicity” value (primary rat microglia [3]; rat) was 0%. For the same compound, the Fibrin % inhibition ([4]; compounds at 10 μM, 10 µM) was 22% and the “Fibrin % cell toxicity” value (primary rat microglia [5]; [8]) was 1%.

With `CCC1(C)CC(=O)NC1=O` (stereo not shown) [Ethosuximide] the inhibition at 10 µM [1, 6] was 19%, the “Quadrant (FIG. 5b)” value [2, 7] was “Q4” and the “LPS % cell toxicity” value (primary rat microglia [3]; rat) was 0%. The inhibition at 10 µM ([4]; compounds at 10 μM) was -9% and the “Fibrin % cell toxicity” value (primary rat microglia [5]; [8]) was 0%.

With `C[C@@H]1O[C@@H](O[C@@H]2C=C3CC[C@@H]4[C@H](CC[C@]5(C)[C@@H](c6ccc(=O)oc6)CC[C@]45O)[C@@]3(C)CC2)[C@H](O)[C@H](O)[C@H]1O` [Proscillaridin] the inhibition at 10 µM ([1]; 48 h) was 16%, the “Quadrant (FIG. 5b)” value [2, 9] was “Q4” and the “LPS % cell toxicity” value (primary rat microglia [3]; rat) was 0%. For the same compound, the inhibition at 10 µM [4, 10] was 8% and the “Fibrin % cell toxicity” value (primary rat microglia [5]; [11]) was 1%.

For `COc1ccc(-c2cc(C(F)F)nn2-c2ccc(S(N)(=O)=O)cc2)cc1F` [Deracoxib], the inhibition at 10 µM [1, 6] was 8%, the “Quadrant (FIG. 5b)” value [2, 7] was “Q4” and the “LPS % cell toxicity” value (primary rat microglia [3]; rat) was 0%. For the same compound, the inhibition at 10 µM ([4]; compounds at 10 μM) was -34% and the “Fibrin % cell toxicity” value (primary rat microglia [5]; [8]) was 0%.

In the case of `Cc1cc(N)c2ccccc2[n+]1CCCCCCCCCC[n+]1c(C)cc(N)c2ccccc21` [Dequadin], the inhibition at 10 µM [1, 6] is reported as 2%, the “Quadrant (FIG. 5b)” value [2, 7] is reported as “Q4” and the “LPS % cell toxicity” value (primary rat microglia [3]; rat) is reported as 0%. The inhibition at 10 µM ([4]; compounds at 10 μM) was -32% and the “Fibrin % cell toxicity” value (primary rat microglia [5]; [8]) was 0%.
